pIC50: −log10 of the molar value.
Assays:
THP-1 cells = experiment: TNF-α- and LPS-mediated inflammatory factors in THP-1 cells; type: cell-based, human; settings: TNF-α and LPS-induced, 50, 25, 12.5 and 3.125 μM
Description: The anti-inflammatory effect of (+)-KDT501 was evaluated in human monocytic THP-1 cells.
THP-1 cells (ATCC, Manassas, Va.) were maintained in RPMI1640 in the presence of 10% serum according to manufacturer's instructions. The cells were pre-incubated with (+)-KDT501 at varying concentrations (50, 25, 12.5 and 3.125 μM) for one hour, then stimulated with TNF-α(10 ng/ml; Sigma, St. Louis, Mo.) or E. coli LPS (1 μg/ml; Sigma, St. Louis, Mo.) overnight (16-20 hours). MMP-9 levels in the medium were measured using an ELISA kit (GE Healthcare, Piscataway, N.J.), and cytokines were assayed using a Milliplex MAP human cytokine/chemokine kit (Millipore, Billerica, Mass.). Analytes were quantified using a Luminex 100™ IS. Data were analyzed using a five-parameter logistic method.

Human DAPK1 = Human DAPK1 (Homo sapiens, UniProt P53355); experiment: DAPK1 activity, cell free kinase assay; type: biochemical
Chain of Human DAPK1 (P53355 whole entry): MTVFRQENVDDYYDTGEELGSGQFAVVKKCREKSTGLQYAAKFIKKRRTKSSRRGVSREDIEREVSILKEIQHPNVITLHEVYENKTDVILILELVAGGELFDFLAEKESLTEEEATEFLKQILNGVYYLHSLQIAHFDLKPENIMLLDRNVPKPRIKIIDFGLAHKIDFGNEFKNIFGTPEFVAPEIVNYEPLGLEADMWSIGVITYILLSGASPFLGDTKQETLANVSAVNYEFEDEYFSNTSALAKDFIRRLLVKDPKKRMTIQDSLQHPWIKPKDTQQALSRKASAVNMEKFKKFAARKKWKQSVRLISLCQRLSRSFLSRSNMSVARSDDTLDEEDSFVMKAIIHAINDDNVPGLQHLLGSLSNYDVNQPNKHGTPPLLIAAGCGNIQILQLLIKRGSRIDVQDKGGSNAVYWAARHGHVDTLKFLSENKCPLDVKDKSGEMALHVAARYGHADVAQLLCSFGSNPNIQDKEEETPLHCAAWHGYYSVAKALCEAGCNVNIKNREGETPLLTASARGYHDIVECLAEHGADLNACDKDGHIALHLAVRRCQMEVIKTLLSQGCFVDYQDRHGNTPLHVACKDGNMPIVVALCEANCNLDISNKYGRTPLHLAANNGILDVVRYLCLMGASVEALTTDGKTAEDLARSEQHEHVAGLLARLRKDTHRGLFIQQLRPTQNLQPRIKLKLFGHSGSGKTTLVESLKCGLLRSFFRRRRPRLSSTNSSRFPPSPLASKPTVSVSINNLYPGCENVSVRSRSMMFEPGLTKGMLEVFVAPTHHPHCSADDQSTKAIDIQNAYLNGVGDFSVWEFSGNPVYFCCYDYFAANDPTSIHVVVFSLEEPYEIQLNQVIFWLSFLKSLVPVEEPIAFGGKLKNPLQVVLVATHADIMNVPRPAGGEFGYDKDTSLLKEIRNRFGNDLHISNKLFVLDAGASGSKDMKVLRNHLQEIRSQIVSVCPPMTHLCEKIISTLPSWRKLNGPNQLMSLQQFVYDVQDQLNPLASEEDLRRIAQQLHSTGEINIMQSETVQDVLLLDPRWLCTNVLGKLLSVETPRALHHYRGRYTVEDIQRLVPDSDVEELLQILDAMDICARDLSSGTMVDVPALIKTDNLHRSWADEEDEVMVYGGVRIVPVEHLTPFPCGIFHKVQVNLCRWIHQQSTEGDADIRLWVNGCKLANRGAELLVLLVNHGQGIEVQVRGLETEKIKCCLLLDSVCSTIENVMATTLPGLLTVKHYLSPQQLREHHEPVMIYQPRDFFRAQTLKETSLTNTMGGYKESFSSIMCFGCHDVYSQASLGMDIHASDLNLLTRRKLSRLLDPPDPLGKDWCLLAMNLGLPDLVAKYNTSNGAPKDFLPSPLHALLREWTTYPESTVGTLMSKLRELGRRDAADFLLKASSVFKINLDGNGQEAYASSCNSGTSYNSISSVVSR
Description: The effect of (+)-KDT501 and (−)-KDT501 on death-associated protein kinase 1 (DAPK1) activity was evaluated.
Human DAPK1 was incubated with 8 mM MOPS, pH 7.0, 0.2 mM EDTA, 250 μM ZIP peptide substrate ([…]), 10 mM MgOAc, and [γ-^33P-ATP] (specific activity approximately 500 cpm/pmol, concentration as required). (+)-KDT501 or (−)-KDT501 at varying concentrations (100, 30, 10, 1, 0.3, 0.1, 0.03, 0.01 μM) were added to the reaction mixture. The reaction was initiated by addition of the MgATP mix. After incubation for 40 minutes at room temperature, the reaction was stopped by addition of 3% phosphoric acid solution. 10 μL of reaction mixture was spotted onto a P30 filtermat, washed three times for five minutes in 75 mM phosphoric acid and once in methanol prior, then dried and subjected to scintillation counting.

[1] = tested on: Zucker diabetic fatty (ZDF) rats; experiment: Glucose and triglyceride levels in a rat diabetes model; type: in vivo
Description: 64 six-week-old male Zucker diabetic fatty (ZDF) rats with glucose levels of 175-300 mg/dL were randomized and divided into eight dosing groups: 1) vehicle only (0.5% methylcellulose (w/v), 0.2% Tween 80 (w/v); negative control), 2) (+)-KDT501 25 mg/kg, 3) (+)-KDT501 50 mg/kg, 4) (+)-KDT501 100 mg/kg, 5) (+)-KDT501 200 mg/kg, 6) metformin 200 mg/kg (positive control), 7) metformin 200 mg/kg and (+)-KDT501 100 mg/kg, and 8) pioglitazone 30 mg/kg (positive control). Drugs were administered orally twice a day for 33 days.
Animals were weighed at randomization and once per week thereafter, with administration dosages calculated based on the most recent body weight measurements. Blood samples were collected by tail bleed three days prior to randomization, at randomization, and at days 15 and 29 after the start of treatment. These blood samples were used to perform whole blood glucose evaluations using a glucometer, as well as to measure blood triglyceride levels. Body composition was tested by qNMR on days 2 and 29 after the start of treatment. An oral glucose tolerance test (OGTT) was performed on days 31 and 32 after the start of treatment. Rats underwent an overnight fast prior to OGTT, and tail bleeds for glucose and insulin were performed pre-glucose bolus and at 15, 30, 60, 90, and 120 minutes post-glucose bolus. The glucose bolus was 2 g dextrose/kg of body weight. On day 33, a cardiac puncture was performed for PK analysis.

[2] = tested on: diet induced obese (DIO) mice; experiment: Glucose, insulin, HbA1C and fat mass in high fat diet-induced obesity (DIO) mouse model; type: in vivo
Description: 14 week-old male mice were randomized and divided into seven dosing groups with 16 animals in each group: 1) vehicle only (0.5% methylcellulose (w/v), 0.2% Tween 80 (w/v); negative control), 2) (+)-KDT501 25 mg/kg, 3) (+)-KDT501 50 mg/kg, 4) (+)-KDT501 100 mg/kg, 5) (+)-KDT501 200 mg/kg, 6) metformin 200 mg/kg (positive control), and 7) pioglitazone 30 mg/kg (positive control). Drugs were administered orally twice a day for 30 days.
Animals were weighed at randomization and once per week thereafter, with administration dosages calculated based on the most recent body weight measurements. The mice were maintained on a high fat diet (40% Kcal) (TD95217; prepared by Covance Laboratories, Greenfield, Ind.). Body composition was tested by qNMR on days −5 and 28 after the start of treatment. […]. An oral glucose tolerance test (OGTT) was performed on day 30 after the start of treatment. Mice underwent an overnight fast prior to OGTT, and tail bleeds for glucose and insulin were performed pre-glucose bolus and at 15, 30, 60, 90, and 120 minutes post-glucose bolus. The glucose bolus was 2 g dextrose/kg of body weight. OGTT results were evaluated by area under the curve (AUC) measurements and Dunnett's test.

SMILES: CC(C)CCC(=O)[C@@]1(O)C(O)=C(C(=O)CC(C)C)C(=O)[C@@H]1CCC(C)C.[K] [(+)-KDT501, (+)-(4S,5R)-3,4-dihydroxy-2-(3-methylbutanoyl)-5-(3-methylbutyl)-4-(4-methylpentanoyl)cyclopent-2-en-1-one potassium salt]
- expression of IL-1β (THP-1 cells): inhibited
- expression of MCP-1 (THP-1 cells): inhibited
- expression of MIP-1α (THP-1 cells): inhibited
- expression of MMP-9 (THP-1 cells): inhibited
- expression of RANTES (THP-1 cells): inhibited
- fold difference in DAPK1 IC50 between the two compounds (Human DAPK1; (+)-KDT501 versus (−)-KDT501): ~15 fold
- pIC50 (Human DAPK1; cell free assay): 5.58
- whole blood glucose levels ([1]; 200 mg/kg orally twice a day): significant decrease
- triglyceride levels ([1]; 200 mg/kg orally twice a day, days 15 and 29): significant decrease
- whole blood glucose levels ([1]; 25, 50, or 100 mg/kg orally twice a day): nearly the same as those observed in negative control rats
- insulin levels from the OGTT ([2]; 200 mg/kg orally twice a day, day 30): significant decrease
- blood glucose levels from the OGTT ([2]; 100 or 200 mg/kg orally twice a day, day 30): significant decrease
- fat mass ([2]; 100 or 200 mg/kg orally twice a day, qNMR day 28): significant difference in fat mass versus negative control mice
- HbA1C ([2]; orally twice a day, day 29, dose not specified): trend towards HbA1C inhibition

Source: US8410178B2, “CIS 3,4-dihydroxy-2-(3-methylbutanoyl)-5-(3-methylbutyl)-4-(4-methylpentanoyl)cyclopent-2-en-1-derivatives, substantially enantiomerically pure compositions and methods” (KinDex Therapeutics, LLC, priority 2010, dated 2013)
